Test results: patent US5714594A, “cDNA cloning and expression of human liver estrogen sulfotransferase” (Mayo Foundation for Medical Education and Research, priority 1994, dated 1998)

Legend:
human EST = test: Optimization of EST assay conditions and preferred substrate; assay type: biochemical; conditions: compared with estradiol-17β, ethinyl estradiol or DHEA
From the text: 1. Identification of the preferred substrate for human EST.
2. Optimization of EST assay conditions. Estrone was used as the substrate to determine optimal assay conditions and, subsequently, to characterize the properties of human EST.

human liver EST [1] = molecular target: T1, human liver EST (Homo sapiens, UniProt P49888); test: ST activities in high-speed supernatants of COS-1 cells transfected with human liver EST cDNA; assay type: biochemical; set-up: expressed in transfected cells; host or cells: COS-1 cells, vector p91023(B); 100,000×g high-speed supernatant; conditions: substance is the sulfate acceptor substrate; transfected COS-1 cell preparation; 1 unit = 1 nmol sulfated product per hour at 37° C.
T1 sequence (P49888 1-294): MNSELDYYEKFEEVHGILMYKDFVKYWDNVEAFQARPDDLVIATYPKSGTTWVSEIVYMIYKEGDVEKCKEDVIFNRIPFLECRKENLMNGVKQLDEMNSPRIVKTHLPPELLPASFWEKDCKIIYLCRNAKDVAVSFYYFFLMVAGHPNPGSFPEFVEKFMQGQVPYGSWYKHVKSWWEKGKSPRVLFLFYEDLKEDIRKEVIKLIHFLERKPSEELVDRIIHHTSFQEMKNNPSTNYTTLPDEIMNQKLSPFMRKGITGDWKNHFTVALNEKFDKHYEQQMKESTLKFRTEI
Procedure: B. Expression in COS-1 cells. COS-1 cells were transfected with an EST cDNA expression construct in the eukaryotic expression vector p91023(B) as well as with vector alone using the DEAE-dextran method (H. Luthman et al., Nucleic Acids Res., 11, 1295-1308 (1983)). After harvesting, cell pellets were washed with 5 ml of phosphate buffered saline (PBS) and were homogenized for 30 seconds in 2 ml of 5 mM potassium phosphate buffer, pH 6.5. The homogenates were centrifuged at 15,000×g for 15 minutes at 4° C., and supernatants were centrifuged at 100,000×g for 1 hour at 4° C. Five μl aliquots of the 100,000×g "high-speed supernatants" (HSS) were assayed for ST enzymatic activities.
A. Sulfotransferase (ST) activities. The abilities of EST and DHEA ST to catalyze sulfation of various substrates were compared.
One unit of enzyme activity represented the formation of 1 nmol of sulfated product per hour of incubation at 37° C. All assays were performed in triplicate, and values reported are averages of those three determinations. Protein concentrations were measured by the method of Bradford (Anal. Biochem., 72, 248-254 (1976)) with bovine serum albumin as a standard.

human liver EST [2] = molecular target: T1, human liver EST; conditions: 150 mM NaCl; estrone as substrate; expressed in COS-1 cells
Procedure: (§1) Biochemical characterization of human EST were carried out using aliquots of HSS from COS-1 cells transfected with human liver EST cDNA. Parallel experiments were performed with human liver DHEA ST cDNA (D. M. Otterness et at., Mol. Pharmacol., 41, 865-872 (1992)) that had also been transiently expressed in COS-1 cells.
(§2) E. Effect of NaCl concentration on EST activity.

human liver DHEA ST [3] = molecular target: T2, human liver DHEA ST (Homo sapiens, UniProt Q06520); conditions: 75 mM NaCl; DHEA as substrate
T2 sequence (Q06520 1-285): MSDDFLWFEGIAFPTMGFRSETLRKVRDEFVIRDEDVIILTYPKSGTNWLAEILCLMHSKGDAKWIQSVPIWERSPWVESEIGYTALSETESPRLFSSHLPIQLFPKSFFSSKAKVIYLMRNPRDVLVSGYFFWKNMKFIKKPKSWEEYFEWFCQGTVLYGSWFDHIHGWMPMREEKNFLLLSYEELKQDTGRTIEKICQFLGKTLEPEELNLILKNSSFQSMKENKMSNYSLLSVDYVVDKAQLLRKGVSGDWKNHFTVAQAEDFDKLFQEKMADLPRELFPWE
Procedure: as §1, §2

human liver EST [4] = molecular target: T1, human liver EST; test: DCNP inhibition of EST activity; assay type: biochemical; set-up: expressed in transfected cells; host or cells: COS-1 cells, vector p91023(B); 100,000×g high-speed supernatant; conditions: estrone as substrate; expressed in COS-1 cells; read-out: mean DCNP concentration at which EST activity was 50% inhibited
Procedure: (§3) D. DCNP inhibition of EST activity. […] EST activity (using its preferred substrate, estrone) and DHEA ST activity (using its preferred substrate, DHEA) were 50% inhibited at very similar mean DCNP concentrations, 28±2.9 and 40±2.3 μM, respectively (FIG. 4B).

human liver DHEA ST [5] = molecular target: T2, human liver DHEA ST; test: DCNP inhibition of DHEA ST activity; assay type: biochemical; set-up: expressed in transfected cells; host or cells: COS-1 cells; high-speed supernatant; conditions: DHEA as substrate; expressed in COS-1 cells; read-out: mean DCNP concentration at which DHEA ST activity was 50% inhibited
Procedure: as §3

[6] = substrate: C[C@]12CC[C@H](O)CC1=CC[C@@H]1[C@@H]2CC[C@]2(C)C(=O)CC[C@@H]12; test: Substrate kinetics (apparent Km) of ST activity, DHEA ST; assay type: biochemical, human; conditions: other: substance is the substrate; DHEA ST cDNA expressed in COS-1 cells
Procedure: (§4) B. Kinetics of ST activity. Substrate kinetic studies designed to estimate apparent Km values were performed. Since human liver EST and DHEA ST can both catalyze the sulfation of steroids, these studies presented an opportunity to determine apparent Km values of the two enzymes with estrone and DHEA as substrates. Both enzyme preparations were tested with a range of estrone and DHEA concentrations. […] Apparent Km values were calculated by the method of Wilkinson (Biochem. J., 80, 324-332 (1961)) with a computer program written by Cleland (Nature, 198, 463-465 (1963)).

[7] = substrate: C[C@]12CC[C@@H]3c4ccc(O)cc4CC[C@H]3[C@@H]1CCC2=O; test: as above; assay type: biochemical, human; conditions: other: substance is the substrate; DHEA ST cDNA expressed in COS-1 cells
Procedure: as §4

human liver DHEA ST [8] = molecular target: T2, human liver DHEA ST; test: Thermal inactivation of ST activity, DHEA ST; assay type: physicochemical; set-up: expressed in transfected cells; host or cells: COS-1 cells; high-speed supernatant; conditions: preincubated 15 minutes; DHEA as substrate; HSS from COS-1 cells
Procedure: (§5) C. Thermal inactivation of ST activity. […] The temperatures at which 50% inactivation of EST (using its preferred substrate, estrone) and DHEA ST (using its preferred substrate, DHEA) activities occurred were 38.2±0.12 (mean±SEM) and 41.1±0.10° C., respectively (FIG. 4A). For the thermal inactivation experiment, HSS from COS-1 cells transfected with EST cDNA or DHEA ST cDNA was diluted 1:2 (v/v) with 5 mM potassium phosphate buffer, pH 6.5, preincubated at various temperatures for 15 minutes and was then placed on ice. An aliquot of the same preparation was kept on ice as a control. Each aliquot was then diluted further for assay of the ST activity being measured. Values for controls were determined at each temperature studied.

[9] = substrate: C[C@]12CC[C@H](O)CC1=CC[C@@H]1[C@@H]2CC[C@]2(C)C(=O)CC[C@@H]12; test: Substrate kinetics (apparent Km) of ST activity, EST; assay type: biochemical, human; conditions: other: substance is the substrate; EST cDNA expressed in COS-1 cells
Procedure: as §4

[10] = substrate: C[C@]12CC[C@@H]3c4ccc(O)cc4CC[C@H]3[C@@H]1CCC2=O; test: as above; assay type: biochemical, human; conditions: other: substance is the substrate; EST cDNA expressed in COS-1 cells
Procedure: as §4

human liver EST [11] = molecular target: T1, human liver EST; test: Thermal inactivation of ST activity, EST; assay type: physicochemical; set-up: expressed in transfected cells; host or cells: COS-1 cells, vector p91023(B); 100,000×g high-speed supernatant; conditions: preincubated 15 minutes; estrone as substrate; HSS from COS-1 cells
Procedure: as §5

## C[C@]12CC[C@@H]3c4ccc(O)cc4CC[C@H]3[C@@H]1CCC2=O [estrone]
Human EST
  ST enzyme activity as sulfate acceptor substrate, compared with other substrates: greater ST enzyme activity
Human liver EST [1]
  sulfation catalyzed by the protein encoded by the human liver EST cDNA: 9 units/mg protein

## O=[N+]([O-])c1ccc(O)cc1 [4-nitrophenol]
Human liver EST [1]
  sulfation catalyzed by the protein encoded by the human liver EST cDNA: 5 units/mg protein

## C[C@]12CC[C@H](O)CC1=CC[C@@H]1[C@@H]2CC[C@]2(C)C(=O)CC[C@@H]12 [DHEA, dehydroepiandrosterone]
Human liver EST [1]
  sulfation catalyzed by the protein encoded by the human liver EST cDNA: 2.3 units/mg protein

## [Cl-].[Na+] [NaCl]
Human liver EST [2]
  increase of human liver EST activity: 86%
Human liver DHEA ST [3]
  peak activation of human liver DHEA ST: 62%

## NCCc1ccc(O)c(O)c1 [dopamine]
Human liver EST [1]
  sulfation catalyzed by the protein encoded by the human liver EST cDNA: not

## O=[N+]([O-])c1cc(Cl)c(O)c(Cl)c1 [DCNP, 2,6-dichloro-4-nitrophenol]
Human liver EST [4]
  IC50: 28 ± 2.9 µM
Human liver DHEA ST [5]
  IC50: 40 ± 2.3 µM

B1: human liver DHEA ST (Homo sapiens) (protein)
chain: MSDDFLWFEGIAFPTMGFRSETLRKVRDEFVIRDEDVIILTYPKSGTNWLAEILCLMHSKGDAKWIQSVPIWERSPWVESEIGYTALSETESPRLFSSHLPIQLFPKSFFSSKAKVIYLMRNPRDVLVSGYFFWKNMKFIKKPKSWEEYFEWFCQGTVLYGSWFDHIHGWMPMREEKNFLLLSYEELKQDTGRTIEKICQFLGKTLEPEELNLILKNSSFQSMKENKMSNYSLLSVDYVVDKAQLLRKGVSGDWKNHFTVAQAEDFDKLFQEKMADLPRELFPWE
notes: expressed in transfected cells; host or cells: COS-1 cells; high-speed supernatant
[6]
  Km: 2.6 µM
[7]
  Km: 3.1 µM
Human liver DHEA ST [8]
  temperature at which 50% inactivation of DHEA ST activity occurred (mean±SEM): 41.1±0.10 °C

B2: human liver EST (Homo sapiens) (protein)
chain: MNSELDYYEKFEEVHGILMYKDFVKYWDNVEAFQARPDDLVIATYPKSGTTWVSEIVYMIYKEGDVEKCKEDVIFNRIPFLECRKENLMNGVKQLDEMNSPRIVKTHLPPELLPASFWEKDCKIIYLCRNAKDVAVSFYYFFLMVAGHPNPGSFPEFVEKFMQGQVPYGSWYKHVKSWWEKGKSPRVLFLFYEDLKEDIRKEVIKLIHFLERKPSEELVDRIIHHTSFQEMKNNPSTNYTTLPDEIMNQKLSPFMRKGITGDWKNHFTVALNEKFDKHYEQQMKESTLKFRTEI
notes: expressed in transfected cells; host or cells: COS-1 cells, vector p91023(B); 100,000×g high-speed supernatant
[9]
  Km: 0.85 µM
[10]
  Km: 0.17 µM
Human liver EST [11]
  temperature at which 50% inactivation of EST activity occurred (mean±SEM): 38.2±0.12 °C
